This passage reports inhibition results from publication PMC5540273, “Progress towards a public chemogenomic set for protein kinases and a call for contributions” (PLoS ONE, 2017).

Structures are written as SMILES.

What all share (assay): KINOMEscan competition binding
Assay [1] deals with CAMK1G (Homo sapiens, UniProt Q96NX5). Conditions: read-out: %Inh CAMK1G.
Assay [2] has as its target T1, HASPIN (Homo sapiens, UniProt Q8TF76).
T1 sequence (Q8TF76 1-798): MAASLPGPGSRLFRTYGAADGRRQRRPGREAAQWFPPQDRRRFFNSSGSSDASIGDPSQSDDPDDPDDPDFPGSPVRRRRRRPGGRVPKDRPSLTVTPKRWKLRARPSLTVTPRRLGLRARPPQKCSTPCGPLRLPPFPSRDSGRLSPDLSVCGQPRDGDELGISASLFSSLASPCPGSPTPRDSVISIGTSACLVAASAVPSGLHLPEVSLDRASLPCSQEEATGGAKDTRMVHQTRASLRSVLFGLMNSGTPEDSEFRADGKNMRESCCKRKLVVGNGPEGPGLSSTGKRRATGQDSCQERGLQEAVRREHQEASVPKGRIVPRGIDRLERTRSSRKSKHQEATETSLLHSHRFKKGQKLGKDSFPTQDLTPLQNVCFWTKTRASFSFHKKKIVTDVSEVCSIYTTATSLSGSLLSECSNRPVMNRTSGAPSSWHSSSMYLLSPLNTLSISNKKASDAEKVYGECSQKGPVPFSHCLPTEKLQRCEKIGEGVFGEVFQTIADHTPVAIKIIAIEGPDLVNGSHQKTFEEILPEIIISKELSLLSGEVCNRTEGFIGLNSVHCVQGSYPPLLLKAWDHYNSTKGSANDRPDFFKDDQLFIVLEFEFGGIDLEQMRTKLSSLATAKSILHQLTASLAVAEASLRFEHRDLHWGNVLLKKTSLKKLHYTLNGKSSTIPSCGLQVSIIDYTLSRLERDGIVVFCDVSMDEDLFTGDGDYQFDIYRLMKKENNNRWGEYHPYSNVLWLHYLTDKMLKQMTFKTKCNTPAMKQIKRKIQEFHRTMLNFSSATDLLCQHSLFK
Conditions: read-out: %Inh HASPIN.

Assay [3] has as its target INSR (Homo sapiens, UniProt P06213). Conditions: read-out: %Inh INSR.
The target of assay [4] is LIMK2 (Homo sapiens, UniProt P53671). Conditions: read-out: %Inh LIMK2.
Chain of LIMK2 (P53671 whole entry): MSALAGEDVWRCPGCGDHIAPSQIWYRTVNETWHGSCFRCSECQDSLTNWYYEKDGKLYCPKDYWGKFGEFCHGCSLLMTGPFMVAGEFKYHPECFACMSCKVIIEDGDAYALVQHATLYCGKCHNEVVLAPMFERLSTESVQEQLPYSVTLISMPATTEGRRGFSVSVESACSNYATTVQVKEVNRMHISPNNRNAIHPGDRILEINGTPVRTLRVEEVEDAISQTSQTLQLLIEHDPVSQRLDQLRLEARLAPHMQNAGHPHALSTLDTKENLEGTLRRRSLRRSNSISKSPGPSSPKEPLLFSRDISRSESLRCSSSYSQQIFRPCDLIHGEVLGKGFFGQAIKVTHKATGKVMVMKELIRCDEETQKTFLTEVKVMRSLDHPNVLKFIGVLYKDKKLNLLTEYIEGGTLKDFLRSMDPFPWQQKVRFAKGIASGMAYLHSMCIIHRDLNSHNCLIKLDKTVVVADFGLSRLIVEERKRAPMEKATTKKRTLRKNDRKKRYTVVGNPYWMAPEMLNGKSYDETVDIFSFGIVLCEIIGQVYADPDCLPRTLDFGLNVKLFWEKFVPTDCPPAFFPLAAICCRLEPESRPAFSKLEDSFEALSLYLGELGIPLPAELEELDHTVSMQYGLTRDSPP
Assay [5] has as its target T2, CTK (Homo sapiens, UniProt P42679).
T2 sequence (P42679 1-507): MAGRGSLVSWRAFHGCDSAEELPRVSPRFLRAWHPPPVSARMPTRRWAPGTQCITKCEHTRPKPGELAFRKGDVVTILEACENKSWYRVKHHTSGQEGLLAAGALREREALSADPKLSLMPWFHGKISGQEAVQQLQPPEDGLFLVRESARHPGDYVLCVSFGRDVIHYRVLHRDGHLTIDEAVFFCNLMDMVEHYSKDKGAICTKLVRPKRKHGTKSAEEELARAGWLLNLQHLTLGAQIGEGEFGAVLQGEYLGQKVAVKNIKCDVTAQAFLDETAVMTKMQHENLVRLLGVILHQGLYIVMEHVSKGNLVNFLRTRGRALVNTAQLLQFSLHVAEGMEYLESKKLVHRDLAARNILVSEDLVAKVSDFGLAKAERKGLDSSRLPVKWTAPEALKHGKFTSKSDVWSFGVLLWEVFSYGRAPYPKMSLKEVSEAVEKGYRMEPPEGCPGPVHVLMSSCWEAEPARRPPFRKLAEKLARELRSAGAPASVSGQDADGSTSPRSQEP
To be noted: read-out: %Inh CTK.

For assay [6], the target named is T3, AXL (Homo sapiens, UniProt P30530).
T3 sequence (P30530 26-894): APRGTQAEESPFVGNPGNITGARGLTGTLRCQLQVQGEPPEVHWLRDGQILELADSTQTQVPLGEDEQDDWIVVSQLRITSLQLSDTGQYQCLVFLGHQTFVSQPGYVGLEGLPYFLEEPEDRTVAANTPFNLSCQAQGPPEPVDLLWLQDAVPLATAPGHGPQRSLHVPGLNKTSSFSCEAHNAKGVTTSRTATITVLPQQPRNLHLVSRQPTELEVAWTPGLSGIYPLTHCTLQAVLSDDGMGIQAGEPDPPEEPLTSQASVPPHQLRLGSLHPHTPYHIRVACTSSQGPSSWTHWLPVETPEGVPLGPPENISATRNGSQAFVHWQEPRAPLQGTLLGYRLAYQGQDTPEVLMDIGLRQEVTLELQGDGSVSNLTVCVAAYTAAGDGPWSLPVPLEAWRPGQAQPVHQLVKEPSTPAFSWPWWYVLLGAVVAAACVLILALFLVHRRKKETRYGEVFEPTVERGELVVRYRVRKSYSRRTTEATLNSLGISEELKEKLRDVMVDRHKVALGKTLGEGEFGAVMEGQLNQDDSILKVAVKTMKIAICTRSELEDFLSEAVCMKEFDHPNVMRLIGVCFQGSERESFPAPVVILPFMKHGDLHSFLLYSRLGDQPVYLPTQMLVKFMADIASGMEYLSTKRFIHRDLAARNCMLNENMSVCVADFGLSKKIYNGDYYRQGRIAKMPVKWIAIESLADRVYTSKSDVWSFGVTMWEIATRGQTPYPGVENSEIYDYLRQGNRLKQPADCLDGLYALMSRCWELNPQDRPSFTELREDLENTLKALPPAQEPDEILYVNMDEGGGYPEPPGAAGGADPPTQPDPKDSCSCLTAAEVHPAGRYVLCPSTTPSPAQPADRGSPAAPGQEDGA
To be noted: read-out: %Inh AXL.

Chain of INSR (P06213 28-1382): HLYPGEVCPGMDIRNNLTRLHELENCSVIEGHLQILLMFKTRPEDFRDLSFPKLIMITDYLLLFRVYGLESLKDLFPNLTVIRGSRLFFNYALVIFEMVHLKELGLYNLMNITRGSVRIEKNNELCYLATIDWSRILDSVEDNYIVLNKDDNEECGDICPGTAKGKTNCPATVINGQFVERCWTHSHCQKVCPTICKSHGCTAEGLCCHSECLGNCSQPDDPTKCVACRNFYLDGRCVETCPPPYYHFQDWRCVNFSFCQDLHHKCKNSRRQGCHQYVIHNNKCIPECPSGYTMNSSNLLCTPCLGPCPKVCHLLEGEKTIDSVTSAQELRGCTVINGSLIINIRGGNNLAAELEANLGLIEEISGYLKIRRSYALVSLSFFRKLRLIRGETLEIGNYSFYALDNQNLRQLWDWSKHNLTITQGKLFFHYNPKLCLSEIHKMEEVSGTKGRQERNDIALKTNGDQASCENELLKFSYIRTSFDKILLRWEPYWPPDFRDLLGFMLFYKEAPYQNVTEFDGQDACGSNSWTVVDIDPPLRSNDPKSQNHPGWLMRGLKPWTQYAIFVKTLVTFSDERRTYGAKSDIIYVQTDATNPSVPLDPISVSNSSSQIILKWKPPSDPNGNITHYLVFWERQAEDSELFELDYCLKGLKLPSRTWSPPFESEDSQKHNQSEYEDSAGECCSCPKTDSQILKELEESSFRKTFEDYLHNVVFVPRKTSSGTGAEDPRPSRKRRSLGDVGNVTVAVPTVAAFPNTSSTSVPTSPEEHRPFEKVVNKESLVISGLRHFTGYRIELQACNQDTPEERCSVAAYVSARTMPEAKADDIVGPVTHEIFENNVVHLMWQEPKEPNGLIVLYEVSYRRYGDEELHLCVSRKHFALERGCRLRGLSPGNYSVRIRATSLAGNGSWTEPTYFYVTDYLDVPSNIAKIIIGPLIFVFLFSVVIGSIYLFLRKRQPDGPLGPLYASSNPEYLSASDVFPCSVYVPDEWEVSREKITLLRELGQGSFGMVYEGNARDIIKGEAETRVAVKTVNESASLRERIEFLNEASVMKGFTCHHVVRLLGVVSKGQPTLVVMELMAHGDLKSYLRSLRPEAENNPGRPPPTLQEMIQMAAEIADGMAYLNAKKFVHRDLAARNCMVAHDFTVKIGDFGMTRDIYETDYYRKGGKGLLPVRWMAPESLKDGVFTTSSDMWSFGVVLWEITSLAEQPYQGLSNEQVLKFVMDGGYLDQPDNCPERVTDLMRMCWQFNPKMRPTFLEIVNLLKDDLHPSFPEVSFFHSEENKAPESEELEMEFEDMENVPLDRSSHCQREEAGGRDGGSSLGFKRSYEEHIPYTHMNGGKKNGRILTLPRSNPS
Chain of CAMK1G (Q96NX5 whole entry): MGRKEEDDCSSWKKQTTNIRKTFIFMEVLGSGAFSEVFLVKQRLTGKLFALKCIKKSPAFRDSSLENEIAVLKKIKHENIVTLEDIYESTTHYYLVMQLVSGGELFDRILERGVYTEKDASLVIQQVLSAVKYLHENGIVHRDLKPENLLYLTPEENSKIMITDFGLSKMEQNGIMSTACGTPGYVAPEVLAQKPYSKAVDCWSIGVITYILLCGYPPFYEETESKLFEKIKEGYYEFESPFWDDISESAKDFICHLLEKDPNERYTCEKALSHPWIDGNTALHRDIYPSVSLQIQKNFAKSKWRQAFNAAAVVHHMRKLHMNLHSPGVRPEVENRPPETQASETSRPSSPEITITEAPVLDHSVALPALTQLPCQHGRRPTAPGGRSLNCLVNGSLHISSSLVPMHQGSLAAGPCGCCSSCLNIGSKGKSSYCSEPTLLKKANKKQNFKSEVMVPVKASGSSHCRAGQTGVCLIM

Turning to `O=c1cc(N2CCOCC2)nc2n(Cc3cccc(Cl)c3Cl)c(C3CC3)nn12` [UNC10225469A], the inhibition at 1 µM in assay [1] is 5%; in assay [2] it was 0%; in assay [3] it was 0%; in assay [4], 8%; in assay [5], 0%; in assay [6] it was 3%.
As for `COc1cccc(OC)c1C(=O)Nc1cccc(-c2nn3ccccc3c2-c2ccnc(Nc3cccc(F)c3)n2)c1` [UNC10225310A], the inhibition at 1 µM in assay [1] amounted to 0%; in assay [2], 0%; in assay [3] it was 0%; in assay [4], 15%; in assay [5], 21%; in assay [6], 30%.
With `CS(=O)(=O)Cc1ccc(Nc2nccc(-c3c(-c4cccc(NC(=O)C5CCCCC5)c4)nn4ncccc34)n2)cc1` [UNC10225159A], the inhibition at 1 µM in assay [1] is 0%; in assay [2], 17%; in assay [3] it was 42%; in assay [4], 14%; in assay [5] it was 38%; in assay [6], 18%.
For the compound `Cc1ccc(NC(=O)Nc2cccc(C(F)(F)F)c2)cc1` [UNC10225187A], the inhibition at 1 µM in assay [1] stood at 10%; in assay [2] it was 12%; in assay [3], 0%; in assay [4] it was 10%; in assay [5] it was 0%; in assay [6], 0%.
Take `Cn1cc(-c2cnc(N)c3c(-c4ccc5c(c4)CCN5C(=O)Cc4ccccc4)csc23)cn1` [UNC10225012A]: the inhibition at 1 µM in assay [1] worked out at 0%; in assay [2], 0%; in assay [3], 12%; in assay [4], 55%; in assay [5], 62%; in assay [6], 95.9%.
